Test results published in patent US12109179B2, “Pharmaceutical compositions and combinations comprising inhibitors of the androgen receptor and uses thereof” (ESSA Pharma Inc., priority 2019, dated 2024).
Blank lines part the entries; values can stand above or below the molecule they belong to.

Key:
[1] = system: reporter constructs regulated by CMV promoter or AP-1 binding sites; test: Control reporter constructs (CMV promoter, AP-1 binding sites); type: cell-based
Excerpt: 2010, and Myung et al., J Clin Invest. 2013.

[2] = system: PSA protein; test: Western blot of PSA protein in LNCaP lysates; type: cell-based; conditions: ATRA (10 μM), R1881 (1 nM) 24 h
[3] = system: LN95-D3 cells; test: Cell cycle analysis of LN95-D3 cells; type: cell-based; conditions: 1.5% charcoal-stripped serum
Experimental: Flow cytometry: Fixed cells were probed with anti-BrdU-FITC antibody (BD Biosciences) and stained with 7AAD (Sigma). Data was acquired on a FACSCalibur flow cytometer (BD Biosciences) with CellQUEST Pro and later analyzed using FlowJo V10 software.
After incubating with the compounds, cells were labelled with BrdU for 2 h and then processed for flow cytometry.

[4] = system: Androgen-induced PSA-luciferase (LNCaP cells); test: Androgen-induced PSA (6.1 kb)-luciferase reporter assay in LNCaP cells; type: cell-based; conditions: Homo sapiens, R1881 (1 nM) 24 h
Experimental: To determine the IC50, treatments were normalized to the maximum activity with androgen-induction (in the absence of test compounds, vehicle only) (Table 1).
Luciferase Assay: Lysates were thawed on ice then collected into V-bottom 96-well tissue culture plates. Lysates were centrifuged at 4° C. for 5 minutes at 4000 rpm. To measure luminescence of LNCaP cell lysates the Firefly Luciferase Assay System (Promega) was employed, according to manufacturer's protocol.
Comparisons between treatment and control groups were compared using Two-Way ANOVA with post-hoc Dunnett's and Tukey's tests. Differences were considered statistically significant at P values less than 0.05. Densitometric quantification of relative AR levels was determined by Image.

[5] = system: LNCaP95 cells; test: γH2AX DNA damage in LNCaP95 cells with or without irradiation; type: cell-based; conditions: ENZ 5 μM, with or without irradiation (4Gy), 48 h
Experimental: Further, cells were labelled for γH2AX and 7AAD and analyzed by flow cytometry (FIG. 12B). The percentage of cells containing above 10 γH2AX foci (mean±SD from three independent experiments) are represented in FIG. 12C.
Flow Cytometry: Cell cycle analysis was conducted by flow cytometry using BrdU-FITC and 7AAD. DNA damage was analyzed using γH2AX antibody (CST) and 7AAD. Cells were analyzed on FACScalibur flow cytometer.
Immunofluorescence staining: γH2AX antibody (Millipore mouse), Alexa488 anti-mouse antibody were used for staining. Cells were analyzed on Axio observer (×20 magnification) equipped with epitome 2.
Statistical analysis: Graphs represent the means±SEM from three independent experiments performed with three technical replicates. Statistical significance was determined using GraphPad Prism software with a one-way ANOVA; *P<0.05, **P<0.01, ***P<0.001, ****P<0.0001.

[6] = system: mCRPC patients with bone metastases; conditions: cited from earlier work
[7] = system: AR transcriptional activity (PSA (6.1 kb)-luciferase, LNCaP cells); test: PSA (6.1 kb)-luciferase assay with Pin1 inhibitors and AR NTD inhibitors (Examples 36-37); type: cell-based; conditions: for IC50: Homo sapiens, 24 h
Experimental: Statistical analyses: Statistical significance was determined with GraphPad Prism 8 software using two-way ANOVA with Dunnett's multiple comparisons test unless indicated otherwise; *P<0.05, **P<0.01, ***P<0.001; ns, not significant.
Data shown in Figures are the means±SE from 4 independent experiments.

[8] = system: AR-positive breast cancer cell lines; test: Cell proliferation (BrdU) and viability (alamarBlue) of breast cancer cell lines; type: cell-based; conditions: BrdU 4 days (enzalutamide 10 μM, EPI-002 35 μM); alamarBlue 2 or 3 days
Experimental: Cell Proliferation and Viability Assay: Each breast cancer cell line was plated at 5,000 cells per well in a 96-well plate in culture medium containing 5% or 10% fetal bovine serum. […] For proliferation assay, cells were treated for 4 days and labeled with BrdU for 2 hours. Incorporation of BrdU was measured by enzyme-linked immunosorbent assay (ELISA; Cell Proliferation ELISA, BrdU (colorimetric) from Roche). For cell viability assays, alamarBlue was used for assess cell viability after 2 or 3 days of treatment.
BrdU incorporation was used to assess cell proliferation.
AlamarBlue was used to assess cell viability. Results are presented as mean±SEM (n=3 except n=6 for LNCaP).

[9] = system: C4-2B-MDVR; test: Colony formation, C4-2B-MDVR; type: cell-based, human
[10] = system: LN95 cells; test: Senescence-associated β-gal staining of LN95 cells; type: cell-based; conditions: 1.5% charcoal-stripped serum, 3 days
Experimental: β-galactosidase staining: Cells grown in chamber slides and treated with compounds were fixed at room temperature with 2% formaldehyde/0.2% glutaraldehyde, and then incubated at 37° C. with fresh β-gal staining solution (Cell Signaling) titrated to pH 6.0. Staining was optimal after incubating the slides overnight for 16-18 hours.
Results shown are representative of 3 independent experiments.

SMILES: CC1=C(/C=C/C(C)=C/C=C/C(C)=C/C(=O)O)C(C)(C)CCC1 [ATRA, all-trans retinoic acid]
- inhibitory effects on CMV promoter or AP-1 reporter constructs [1]: No inhibitory effects
- androgen-induced expression of PSA protein [2]: decreased
- cell cycle effect [3]: arrested cells in G1 and decreased the S phase population in a dose-dependent manner

- IC50 [4]: 51 nM
SMILES: CC(C)(c1ccc(OCC(=O)CNS(C)(=O)=O)cc1)c1cc(Cl)c(OCCCCl)c(Cl)c1 [AA31, N-(3-(4-(2-(3,5-dichloro-4-(3-chloropropoxy)phenyl)propan-2-yl)phenoxy)-2-oxopropyl)methanesulfonamide]

- IC50 [4]: 74 nM
SMILES: CC(O)(CCl)COc1c(Cl)cc(C(C)(C)c2ccc(OCC(=O)CNS(C)(=O)=O)cc2)cc1Cl (stereo not drawn) [AA52]

- IC50 [4]: 2260 nM
SMILES: CC(C)(c1ccc(OC[C@H](O)CN)cc1)c1cc(Cl)c(OC[C@H](O)CCl)c(Cl)c1 [Compound 12a, (R)-1-amino-3-(4-(2-(3,5-dichloro-4-((S)-3-chloro-2-hydroxypropoxy)phenyl)propan-2-yl)phenoxy)propan-2-ol]

- IC50 [4]: 1050 nM
SMILES: CC(C)(c1ccc(OC[C@H](O)CN2CCOCC2)cc1)c1cc(Cl)c(OC[C@H](O)CCl)c(Cl)c1 [Compound 11a]

- IC50 [4]: 344 nM
SMILES: COCC(=O)COc1ccc(C(C)(C)c2cc(Cl)c(OCC(O)CCl)c(Cl)c2)cc1 (stereo not drawn) [AA56]

SMILES: CNC(=O)c1ccc(N2C(=S)N(c3ccc(C#N)c(C(F)(F)F)c3)C(=O)C2(C)C)cc1F [Enzalutamide, enzalutamide]
- percentage of cells containing above 10 γH2AX foci [5]: no effect
- combination with ATRA: G1 arrest and decrease of S phase population [3]: not

- IC50 [4]: 38 nM
SMILES: CC(C)(c1ccc(OCC(=O)CNS(C)(=O)=O)cc1)c1cc(Cl)c(OCCCl)c(Cl)c1 [AA33]

- IC50 [4]: 1410 nM
SMILES: CC(C)(c1ccc(OC[C@H](O)CO)cc1)c1cc(Cl)c(OC[C@H](O)CCl)c(Cl)c1 [Compound 1a]

- IC50 [4]: 1030 nM
SMILES: COC[C@@H](O)COc1ccc(C(C)(C)c2cc(Cl)c(OC[C@H](O)CCl)c(Cl)c2)cc1 [Compound 5a]

- IC50 [4]: 368 nM
SMILES: CC(=O)C(=O)Nc1ccc(C(C)(C)c2cc(Cl)c(OCCCCl)c(Cl)c2)cc1 [AA85]

SMILES: [Cl][223Ra][Cl] [radium 223 dichloride]
- increase overall survival (OS) [6]: approximately 3 months

- IC50 [4]: 1050 nM
- IC50 [7]: 740 ± 1200 nM
SMILES: CC(C)(c1ccc(OC[C@H](O)CNS(C)(=O)=O)cc1)c1cc(Cl)c(OC[C@H](O)CCl)c(Cl)c1 [Compound 13a]

- IC50 [4]: 3120 nM
SMILES: CC(C)(c1ccc(OC[C@H](O)Cn2ccnc2)cc1)c1cc(Cl)c(OC[C@H](O)CCl)c(Cl)c1 [Compound 9a]

- IC50 [4]: 950 nM
SMILES: CCS(=O)(=O)C[C@@H](O)COc1ccc(C(C)(C)c2cc(Cl)c(OC[C@H](O)CCl)c(Cl)c2)cc1 [Compound 14a]

SMILES: CC1=C(/C=C/C(C)=C/C=C/C(C)=C\C(=O)O)C(C)(C)CCC1 [Compound 13CisRA]
- inhibitory effects on CMV promoter or AP-1 reporter constructs [1]: No inhibitory effects

- IC50 [7]: 7900 ± 1200 nM
- decrease in IC50 values in the presence of ATRA ([7]; PSA (6.1 kb)-luciferase): 2 fold
SMILES: CC(C)(c1ccc(OC[C@H](O)CO)cc1)c1ccc(OC[C@H](O)CCl)cc1 [EPI-002]
- effect of combination with ATRA on inhibiting AR transcriptional activity ([7]; PSA (6.1 kb)-luciferase, R1881 (1 nM)): synergistic effect
- cell proliferation and viability [8]: significantly inhibited
- colony formation, combination with Enzalutamide [9]: reduced colony formation
- combination with ATRA: G1 arrest and decrease of S phase population [3]: synergistic
- percentage of β-gal-positive cells, combination with ATRA [10]: synergy
